Results as given in ChEMBL document CHEMBL1158944, “Chemistry of Sponges, XII. A New Dihydric Phenol from the Sponge Fasciospongia sp” (J Nat Prod, 1991).
Calls of active or inactive are those of the source. The calls are words filed in the database; no cut-off is given here.

Legend:
Staphylococcus aureus = experiment: Antimicrobial activity against Staphylococcus aureus at 100 ug/ml; format: functional, organism-based
Bacillus subtilis = experiment: Antimicrobial activity against Bacillus subtilis at 100 ug/ml; format: functional, organism-based

COc1cc(C/C=C(/C)CC/C=C(\C)CC/C=C(\C)CCC=C(C)C)cc(O)c1O
Activity (Staphylococcus aureus): Active
Activity (Bacillus subtilis): Active
